Molecular target: human RIP1 kinase domain (2-375) (Homo sapiens (Human), UniProt Q13546)
Assay: RIP1 kinase inhibition biochemical assay (Transcreener ADP, fluorescence polarization)
Conditions: Ki app from tight-binding Morrison equation; 50 nM enzyme, 50 uM ATP, 2 hours incubation
Description: RIP1 Kinase Inhibition Assays (Biochemical Assay)
The compounds of the present invention were tested for their capacity to inhibit RIP1K activity as described below.
The ability of the receptor interacting protein kinase (RIPK1) to catalyze the hydrolysis of adenosine-5′-triphosphate (ATP) is monitored using the Transcreener ADP (adenosine-5′-diphosphate) assay (BellBrook Labs). Purified human RIP1 kinase domain (2-375) (50 nM) derived from a baculovirus-infected insect cell expression system is incubated with test compounds for 2 hours in 50 mM Hepes buffer (pH 7.5) containing 30 mM MgCl2, 1 mM dithiothreitol, 50 uM ATP, 0.002% Brij-35, and 0.5% dimethyl sulfoxide (DMSO). Reactions are quenched by the addition of 1× Bell Brooks Stop buffer B (20 mM Hepes (ph7.5), 40 mM ethylenediaminetetraacetic acid and 0.02% Brij-35) containing an additional 12 mM EDTA and 55 ug/mL ADP2 antibody and 4 nM ADP-AlexaFluor® 633 tracer. The tracer bound to the antibody is displaced by the ADP generated during the RIP1K reaction, which causes a decrease in fluorescence polarization that is measured by laser excitation at 633 nm with a FP microplate reader M1000. Fractional activity was plotted against test article concentration. Using Genedata Screener software (Genedata; Basel, Switzerland), the data were fit to the tight-binding apparent inhibition constant (Ki^app) Morrison equation [Williams, J. W. and Morrison, J. F. (1979) The kinetics of reversible tight-binding inhibition. Methods Enzymol 63: 437-67]. The following equation was used to calculate fractional activity and Ki^app:
[formula] where [E]T and [I]T are the total concentrations of active enzyme and test article, respectively.
Exemplary compounds of the present invention are provided in Table 1 along with their physiochemical characterization and in vitro RIP1 kinase inhibitory activity data. “Method” in the first column of each table refers to the synthetic method(s) used to prepare each compound as shown in the Examples above. In certain examples, chiral column retention times (min) are provided for certain stereoisomers. Unless otherwise specified, the stereochemistry shown in each structure represents relative configuration of a single stereoisomer, and absolute configuration (i.e., “R” and/or “S”) is arbitrarily assigned. In some embodiments, where the Method is described to include the separation of stereoisomers, a single stereoisomer of a compound of Table 1 is provided.

Sequence of human RIP1 kinase domain (2-375) (Q13546 2-375): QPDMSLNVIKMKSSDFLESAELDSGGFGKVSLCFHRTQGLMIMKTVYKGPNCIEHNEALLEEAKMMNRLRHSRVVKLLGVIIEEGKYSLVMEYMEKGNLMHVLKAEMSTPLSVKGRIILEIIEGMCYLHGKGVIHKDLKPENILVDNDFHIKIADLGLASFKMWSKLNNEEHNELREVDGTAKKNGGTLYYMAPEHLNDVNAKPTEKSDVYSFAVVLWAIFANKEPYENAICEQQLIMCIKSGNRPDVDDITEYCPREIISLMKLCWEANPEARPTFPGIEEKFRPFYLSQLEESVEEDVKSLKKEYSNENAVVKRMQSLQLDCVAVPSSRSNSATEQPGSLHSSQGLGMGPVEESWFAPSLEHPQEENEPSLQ

Compound | Ki [nM]
COCS(=O)(=O)c1nc2n(n1)[C@H](c1ccccc1)C[C@@H]2F (single isomer, unassigned) [Example 116] | 170
O=S(=O)(c1nc2n(n1)[C@H](c1ccccc1)C[C@@H]2F)[C@H]1CC1(F)F [Example 130, (5S,7S)-2-(((S)-2,2-difluorocyclopropyl)sulfonyl)-7-fluoro-5-phenyl-6,7-dihydro-5H-pyrrolo[1,2-b][1,2,4]triazole] | 3
O=S(=O)(c1nc2n(n1)[C@H](c1cc(F)cc(F)c1F)C[C@@H]2F)C1CC1 (single isomer, unassigned) [Example 39] | 6
O=S(=O)(c1nc2n(n1)[C@H](c1ccccc1F)C[C@@H]2F)C1CC1F (stereo in doubt) [Example 205, (5S,7S)-7-fluoro-5-(2-fluorophenyl)-2-[(1S,2S)-2-fluorocyclopropyl]sulfonyl-6,7-dihydro-5H-pyrrolo[1,2-b][1,2,4]triazole] | 20
O=S(=O)(CCO)c1nc2n(n1)[C@H](c1ccccc1)C[C@@H]2F (single isomer, unassigned) [Example 223] | 190
O=S(=O)(c1nc2n(n1)[C@H](c1ccccc1F)C[C@@H]2F)C(F)F (single isomer, unassigned) [Example 53] | 13
O=S(=O)(c1nc2n(n1)[C@@H](c1cccc(F)c1F)C[C@H]2F)C1CC1 (single isomer, unassigned) [Example 36] | 880
[O-][S@+](c1nc2n(n1)[C@H](c1cccc(F)c1)C[C@@H]2F)C(F)F (single isomer, unassigned) [Example 182] | 6
[O-][S@@+](c1nc2n(n1)[C@H](c1ccccc1)C[C@@H]2F)C1CC1 [Example 28, (5S,7S)-2-[(R)-cyclopropylsulfinyl]-7-fluoro-5-phenyl-6,7-dihydro-5H-pyrrolo[1,2-b][1,2,4]triazole] | 89
N#C[C@H]1C[C@@H]1S(=O)(=O)c1nc2n(n1)[C@H](c1ccccc1)C[C@@H]2F [Example 209, (1R,2S)-2-[[(5S,7S)-7-fluoro-5-phenyl-6,7-dihydro-5H-pyrrolo[1,2-b][1,2,4]triazol-2-yl]sulfonyl]cyclopropanecarbonitrile] | < 5
C[S+]([O-])c1nc2n(n1)[C@H](c1ccccc1)C[C@@H]2F (stereo partly drawn) [Example 105, (5S,7S)-7-fluoro-2-methylsulfinyl-5-phenyl-6,7-dihydro-5H-pyrrolo[1,2-b][1,2,4]triazole] | 46
O=S(=O)(c1nc2n(n1)[C@H](c1ccccc1F)C[C@@H]2F)C1CC1F (stereo in doubt) [Example 206, (5S,7S)-7-fluoro-5-(2-fluorophenyl)-2-[(1R,2R)-2-fluorocyclopropyl]sulfonyl-6,7-dihydro-5H-pyrrolo[1,2-b][1,2,4]triazole] | 10
O=S(=O)(c1nc2n(n1)[C@H](c1cc(F)cc(Cl)c1)C[C@@H]2F)C1CC1F (stereo in doubt) [Example 200, (5S,7S)-5-(3-chloro-5-fluoro-phenyl)-7-fluoro-2-[(1R,2R)-2-fluorocyclopropyl]sulfonyl-6,7-dihydro-5H-pyrrolo[1,2-b][1,2,4]triazole] | 48
O=S(=O)(c1nc2n(n1)[C@H](c1ccc(F)cc1)C[C@@H]2F)C1CC1F (stereo in doubt) [Example 196, (5S,7S)-7-fluoro-5-(4-fluorophenyl)-2-[(1S,2S)-2-fluorocyclopropyl]sulfonyl-6,7-dihydro-5H-pyrrolo[1,2-b][1,2,4]triazole] | 32
O=S(=O)(c1nc2n(n1)[C@H](c1ccccc1)C[C@@H]2F)[C@@H]1CC1(F)F (single isomer, unassigned) [Example 131] | 4
C[C@H](F)S(=O)(=O)c1nc2n(n1)[C@H](c1ccccc1)C[C@@H]2F (single isomer, unassigned) [Example 160] | 18
[O-][S@+](CC1CC1)c1nc2n(n1)[C@H](c1ccccc1)C[C@@H]2F (single isomer, unassigned) [Example 184] | 130
N#CC[S@+]([O-])c1nc2n(n1)[C@H](c1ccc(F)cc1)C[C@@H]2F (single isomer, unassigned) [Example 99] | 530
O=S(=O)(c1nc2n(n1)[C@H](c1cccc(F)c1F)C[C@@H]2F)C1CC1 (single isomer, unassigned) [Example 40] | 5
CC(C)[S+]([O-])c1nc2n(n1)[C@H](c1ccccc1)C[C@@H]2F (stereo partly drawn) [Example 109, (5S,7S)-7-fluoro-2-isopropylsulfinyl-5-phenyl-6,7-dihydro-5H-pyrrolo[1,2-b][1,2,4]triazole] | 19

Compound | Ki [nM]
[O-][S+](c1nc2n(n1)C(c1ccccc1)CC2)C(F)(F)c1ccccc1 (stereo not shown) [Example 5, 2-[difluoro(phenyl)methyl]sulfinyl-5-phenyl-6,7-dihydro-5H-pyrrolo[1,2-b][1,2,4]triazole] | 548
O=S(=O)(c1cc2n(n1)[C@H](c1ccccc1)C[C@@H]2F)C1CC1 [Example 31, (4S,6S)-2-cyclopropylsulfonyl-4-fluoro-6-phenyl-5,6-dihydro-4H-pyrrolo[1,2-b]pyrazole] | 10
N#Cc1ccccc1[C@@H]1C[C@H](F)c2nc(S(=O)(=O)C(F)F)nn21 (single isomer, unassigned) [Example 62] | 266
O=S(=O)(c1nc2n(n1)[C@H](c1ccccc1)C[C@@H]2F)[C@@H]1CCC1(F)F [Example 171, (5S,7S)-7-fluoro-5-phenyl-2-[(1R)-2,2-difluorocyclobutyl]sulfonyl-6,7-dihydro-5H-pyrrolo[1,2-b][1,2,4]triazole] | < 5
[O-][S@@+](CC(F)(F)F)c1nc2n(n1)[C@H](c1ccccc1)C[C@@H]2F (single isomer, unassigned) [Example 183] | 4
O=S(=O)(c1nc2n(n1)CCC2c1ccccc1)C(F)F (racemic) [Example 220, 2-(Difluoromethylsulfonyl)-7-phenyl-6,7-dihydro-5H-pyrrolo[1,2-b][1,2,4]triazole] | 100
N#Cc1cccc([C@@H]2C[C@H](F)c3nc(S(=O)(=O)C(F)F)nn32)c1 (single isomer, unassigned) [Example 192] | 350
N#CC1(S(=O)(=O)c2nc3n(n2)[C@H](c2ccccc2)C[C@@H]3F)CC1 (single isomer, unassigned) [Example 157] | 23
CC[S@@+]([O-])c1nc2n(n1)[C@H](c1ccccc1)C[C@@H]2F (single isomer, unassigned) [Example 188] | 510
O=S(=O)(c1nc2n(n1)[C@H](c1ccccc1)C[C@@H]2F)C(F)(F)CO (single isomer, unassigned) [Example 156] | 270
O=S(=O)(CC1CC1)c1nc2n(n1)[C@H](c1ccccc1)C[C@@H]2F (single isomer, unassigned) [Example 112] | 60
O=S(=O)(c1nc2n(n1)[C@H](c1ccccc1)C[C@@H]2F)C(F)(F)F (single isomer, unassigned) [Example 137] | 4
N#C[C@H]1C[C@H](S(=O)(=O)c2nc3n(n2)[C@H](c2ccccc2)C[C@@H]3F)C1 [Example 211, trans-3-[[(5S,7S)-7-Fluoro-5-phenyl-6,7-dihydro-5H-pyrrolo[1,2-b][1,2,4]triazol-2-yl]sulfonyl]cyclobutanecarbonitrile] | 12
O=S(=O)(c1nc2n(n1)[C@H](c1ccc(F)c(F)c1)C[C@@H]2F)[C@H]1C[C@@H]1F (single isomer, unassigned) [Example 143] | 31
[O-][S@@+](c1nc2n(n1)[C@H](c1ccccc1)C[C@@H]2F)C(F)(F)F (single isomer, unassigned) [Example 180] | 300
N#CC[S@@+]([O-])c1nc2n(n1)[C@H](c1ccccc1F)C[C@@H]2F (single isomer, unassigned) [Example 96] | 3
O=S(=O)(c1nc2n(n1)[C@H](c1cc(F)cc(Cl)c1)C[C@@H]2F)C1CC1 (single isomer, unassigned) [Example 214] | 29
O=S(=O)(c1nc2n(n1)[C@@H](c1cccc(F)c1F)C[C@H]2F)C(F)(F)F (single isomer, unassigned) [Example 140] | 540
O=S(=O)(c1nc2n(n1)[C@H](c1ccccc1F)C[C@@H]2F)C1CC1 [Example 33, (5S,7S)-2-cyclopropylsulfonyl-7-fluoro-5-(2-fluorophenyl)-6,7-dihydro-5H-pyrrolo[1,2-b][1,2,4]triazole] | 5
O=S(=O)(c1nc2n(n1)C(c1cc(F)cc(F)c1)CC2)C(F)F (racemic) [Example 175, 2-(Difluoromethylsulfonyl)-5-(3,5-difluorophenyl)-6,7-dihydro-5H-pyrrolo[1,2-b][1,2,4]triazole] | 220
